Reference: ChEMBL document CHEMBL1201862, “PubChem BioAssay data set” (2004)
Activity calls are given as the source filed them.

What was measured:
[1] = biological target: T1, Heat shock factor protein 1 (Mus musculus, UniProt P38532); test: enhancement of HSF1-driven luciferase signal – cell-based, NIH3T3, luminescence, dose retest, confirmation (AID 435004); format: functional;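 note: stress induced by proteasome inhibitor MG132 added 30 min after compound; luciferase reporter driven by HSF1 response element in NIH3T3 cells; actives raise luminescence as potentiators of the MG132 stress response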
T1 sequence (P38532 whole entry): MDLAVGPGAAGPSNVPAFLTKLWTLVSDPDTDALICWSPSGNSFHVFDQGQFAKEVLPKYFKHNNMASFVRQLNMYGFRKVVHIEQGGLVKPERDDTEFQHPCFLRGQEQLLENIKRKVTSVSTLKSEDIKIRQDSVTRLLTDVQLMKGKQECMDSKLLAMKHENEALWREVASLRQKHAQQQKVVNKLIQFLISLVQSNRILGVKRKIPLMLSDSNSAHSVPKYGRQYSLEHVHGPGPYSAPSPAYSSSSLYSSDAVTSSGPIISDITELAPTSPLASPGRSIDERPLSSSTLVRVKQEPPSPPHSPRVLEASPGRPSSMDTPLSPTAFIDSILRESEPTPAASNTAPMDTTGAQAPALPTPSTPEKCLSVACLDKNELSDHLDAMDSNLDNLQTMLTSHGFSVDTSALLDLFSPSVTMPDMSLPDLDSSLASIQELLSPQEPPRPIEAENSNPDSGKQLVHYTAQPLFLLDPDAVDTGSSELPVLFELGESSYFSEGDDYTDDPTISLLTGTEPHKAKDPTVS

[2] = biological target: Cytochrome P450 2C9 (Homo sapiens, UniProt P11712)
Chain of Cytochrome P450 2C9 (P11712 whole entry): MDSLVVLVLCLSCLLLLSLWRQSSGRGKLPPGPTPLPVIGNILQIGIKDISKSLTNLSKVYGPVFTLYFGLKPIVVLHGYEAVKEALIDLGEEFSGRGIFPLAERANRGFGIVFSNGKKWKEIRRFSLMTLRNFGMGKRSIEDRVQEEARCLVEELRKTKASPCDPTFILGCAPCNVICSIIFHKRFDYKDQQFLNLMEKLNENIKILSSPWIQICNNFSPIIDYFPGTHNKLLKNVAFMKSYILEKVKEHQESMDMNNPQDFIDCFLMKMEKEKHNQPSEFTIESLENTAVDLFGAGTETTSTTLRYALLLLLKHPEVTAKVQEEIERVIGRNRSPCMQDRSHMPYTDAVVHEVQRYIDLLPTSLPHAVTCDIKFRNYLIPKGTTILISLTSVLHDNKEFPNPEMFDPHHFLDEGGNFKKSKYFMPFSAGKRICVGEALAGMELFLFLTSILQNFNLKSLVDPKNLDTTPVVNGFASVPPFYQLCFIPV

[3] = system: Streptococcus sp. 'group A'; test: Streptococcus pyogenes SK(-)GAS viability under kanamycin – luminescence, BacTiterGlo, confirmation, counter-screen for streptokinase expression inhibitor project, dose response (AID 1900); format: functional, organism-based
[4] = biological target: T2, Streptokinase A (Streptococcus pyogenes serotype M1, UniProt P10520); test: viability-normalized secreted streptokinase activity reduction – plasminogen activation absorbance, OD405, dose response (AID 1914); format: functional, Streptococcus pyogenes M1 GAS;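 note: secreted streptokinase activity via plasminogen activation per viability signal from cell pellet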
T2 sequence (P10520 whole entry): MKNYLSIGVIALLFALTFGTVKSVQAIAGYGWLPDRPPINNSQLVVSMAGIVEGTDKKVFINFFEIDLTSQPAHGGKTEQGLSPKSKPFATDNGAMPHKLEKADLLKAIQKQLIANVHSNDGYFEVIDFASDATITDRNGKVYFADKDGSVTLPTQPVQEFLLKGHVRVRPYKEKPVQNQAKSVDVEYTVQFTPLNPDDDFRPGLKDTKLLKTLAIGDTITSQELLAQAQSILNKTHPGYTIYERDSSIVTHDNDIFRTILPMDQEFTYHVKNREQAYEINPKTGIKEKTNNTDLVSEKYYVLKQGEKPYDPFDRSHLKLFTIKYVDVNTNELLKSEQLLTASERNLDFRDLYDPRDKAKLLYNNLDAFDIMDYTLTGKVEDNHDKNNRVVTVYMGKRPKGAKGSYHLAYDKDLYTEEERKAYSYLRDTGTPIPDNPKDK

[5] = system: Streptococcus; test: GAS UMAA2166 growth inhibition – luminescence, BacTiterGlo, counter-screen for streptokinase expression inhibitor project, dose response (AID 1915); format: functional, organism-based;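 note: potency for reduction of bacterial viability or growth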
[6] = biological target: T3, Protein RecA (Mycobacterium tuberculosis, UniProt P9WHJ3); test: Fluorescence Cell-Free Homogeneous Dose Retest to Identify Inhibitors of RecA-Intein Splicing Activity. [Related pubchem assays (depositor defined):AID2097, AID2223, AID489010, AID492950]; format: functional
T3 sequence (P9WHJ3 whole entry): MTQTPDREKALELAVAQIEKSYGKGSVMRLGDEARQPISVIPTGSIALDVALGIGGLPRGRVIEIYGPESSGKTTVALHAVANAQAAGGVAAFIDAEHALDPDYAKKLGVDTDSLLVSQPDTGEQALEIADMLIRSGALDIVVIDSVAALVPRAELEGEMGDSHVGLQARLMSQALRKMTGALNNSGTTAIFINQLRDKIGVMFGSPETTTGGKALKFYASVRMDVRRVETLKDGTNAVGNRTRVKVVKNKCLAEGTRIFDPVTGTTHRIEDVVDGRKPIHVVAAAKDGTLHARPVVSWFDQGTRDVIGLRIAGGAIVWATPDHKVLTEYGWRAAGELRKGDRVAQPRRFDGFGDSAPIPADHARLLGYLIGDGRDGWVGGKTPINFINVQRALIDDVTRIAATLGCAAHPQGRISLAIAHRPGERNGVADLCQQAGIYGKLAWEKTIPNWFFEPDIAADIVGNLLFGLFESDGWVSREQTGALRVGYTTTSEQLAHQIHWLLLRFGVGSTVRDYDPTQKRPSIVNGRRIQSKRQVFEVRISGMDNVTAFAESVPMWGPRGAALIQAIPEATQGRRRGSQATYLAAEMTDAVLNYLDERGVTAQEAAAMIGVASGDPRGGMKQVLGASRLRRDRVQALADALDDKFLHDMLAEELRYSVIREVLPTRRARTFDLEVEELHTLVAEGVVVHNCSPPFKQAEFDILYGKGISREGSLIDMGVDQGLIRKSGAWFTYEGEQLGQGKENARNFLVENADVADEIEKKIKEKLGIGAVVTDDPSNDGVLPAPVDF

[7] = biological target: Cytochrome P450 2C19 (Homo sapiens, UniProt P33261); test: Cytochrome panel assay with activity outcomes. Panel member name: p450-cyp2c19 Compounds with AC50 equal or less than 10 uM are considered active; format: functional; settings: read-out: AC50
Chain of Cytochrome P450 2C19 (P33261 whole entry): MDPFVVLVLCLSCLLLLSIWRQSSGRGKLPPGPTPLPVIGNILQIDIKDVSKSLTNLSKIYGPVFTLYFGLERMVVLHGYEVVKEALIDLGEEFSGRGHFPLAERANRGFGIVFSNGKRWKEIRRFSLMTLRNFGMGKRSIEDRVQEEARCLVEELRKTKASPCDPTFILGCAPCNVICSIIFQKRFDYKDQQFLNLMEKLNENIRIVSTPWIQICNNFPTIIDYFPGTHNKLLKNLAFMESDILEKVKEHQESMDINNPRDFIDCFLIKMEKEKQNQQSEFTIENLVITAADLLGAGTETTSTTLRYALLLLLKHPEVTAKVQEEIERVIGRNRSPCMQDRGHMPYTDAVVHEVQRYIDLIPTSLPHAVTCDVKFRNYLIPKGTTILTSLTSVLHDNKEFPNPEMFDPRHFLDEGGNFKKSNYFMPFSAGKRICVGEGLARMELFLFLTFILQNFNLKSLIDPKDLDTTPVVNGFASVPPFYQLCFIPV

[8] = biological target: T4, Rac GTPase-activating protein 1 (Homo sapiens, UniProt Q9H0H5); test: blockers of MgcRacGAP-driven Rac1 GTP hydrolysis – biochemical, ADP Hunter fluorescence, primary and confirmatory, confirmation (AID 624330); format: functional
T4 sequence (Q9H0H5 whole entry): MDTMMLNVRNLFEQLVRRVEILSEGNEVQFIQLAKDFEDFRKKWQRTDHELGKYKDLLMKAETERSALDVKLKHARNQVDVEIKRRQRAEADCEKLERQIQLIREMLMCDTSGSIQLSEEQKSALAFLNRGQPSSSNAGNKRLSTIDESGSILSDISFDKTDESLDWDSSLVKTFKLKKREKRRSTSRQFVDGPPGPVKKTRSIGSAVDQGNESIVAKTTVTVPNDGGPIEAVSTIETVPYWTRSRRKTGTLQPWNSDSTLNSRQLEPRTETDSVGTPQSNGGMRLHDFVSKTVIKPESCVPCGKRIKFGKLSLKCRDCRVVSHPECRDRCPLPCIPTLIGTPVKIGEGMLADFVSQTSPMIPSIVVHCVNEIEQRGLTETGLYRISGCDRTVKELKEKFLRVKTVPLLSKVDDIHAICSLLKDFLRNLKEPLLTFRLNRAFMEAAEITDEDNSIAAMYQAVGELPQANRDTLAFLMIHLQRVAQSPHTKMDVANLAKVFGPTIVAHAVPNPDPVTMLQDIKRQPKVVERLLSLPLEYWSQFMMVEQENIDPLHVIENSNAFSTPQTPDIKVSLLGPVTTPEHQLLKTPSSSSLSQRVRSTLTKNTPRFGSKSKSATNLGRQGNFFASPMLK

[9] = reduction of Shn3 3'UTR-driven luciferase in osteoblasts – cell-based, Clone20 osteoblasts, firefly luciferase, cherry-picked, dose response (AID 624132); format: functional;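 note: firefly luciferase luminescence from reporter carrying the Shn3 3'UTR in osteoblasts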
[10] = loss of viability in HepG2 cells – cell-based, CellTiter-Glo, cherry-picked, cytotoxicity control for Shn3 inhibitor project, dose response (AID 624134); format: functional
[11] = non-specific 3'UTR reporter inhibition in Clone20-Shn3RL – cell-based, Renilla luciferase, cherry-picked, counter-screen for Shn3 inhibitor project, dose response (AID 624133); format: functional

Q: With Cc1ccc(-c2csc3ncnc(O)c23)c(C)c1 as the compound, how does the EC50 [1] read?
A: > 260 µM (inactive)

Q: Which EC50 [1] does the source give for N#Cc1ccccc1COC(=O)c1cc(=O)c2ccccc2o1 here?
A: > 260 µM (inactive)

Q: With COCCN1C(=O)c2ccccc2C(C(=O)Nc2ccc3c(c2)OCCO3)C1c1ccc(F)cc1 (centres undefined) as the compound, how does the AC50 [2] read?
A: 35.5 µM (inconclusive)

Q: With Cc1ccccc1OCC(=O)Nc1ccccc1N1CCCCC1 as the compound, how does the EC50 [3] read?
A: 9.64 µM (active)

Q: And the EC50 [4]?
A: 14.2 µM (active)

Q: And the EC50 [5]?
A: 17.9 µM (active)

Q: And the EC50 [6]?
A: 242 µM (active)

Q: For COC(=O)C/C=C\[C@@H](C)[C@@H](/C=N\O[C@@H](C)c1cc(-c2c(C)cc(C)cc2C)no1)OC, which AC50 [7] is on record?
A: 2.51 µM (inconclusive)

Q: And the AC50 [2]?
A: 3.16 µM (inconclusive)

Q: With CCOC(=O)c1cc(-c2ccc3c(c2)OCCO3)nc2c1c(C)nn2CCC#N as the compound, how does the EC50 [3] read?
A: 4.49 µM (active)

Q: What about the EC50 [4] of the same compound?
A: > 150 µM (not active)

Q: And the EC50 [5]?
A: 17.6 µM (active)

Q: For CCCCNc1c(-c2ccc(OC)c(SC3CCCCC3)c2)nc2cnccn12, which EC50 [3] is on record?
A: 4.63 µM (active)

Q: And the EC50 [4]?
A: 6.56 µM (active)

Q: And the EC50 [5]?
A: 8.16 µM (active)

Q: Which EC50 [1] does the source give for O=C(COC(=O)C1CSC2(c3ccc(F)cc3)CCC(=O)N12)NC(=O)NC1CCCC1 (centres undefined) here?
A: > 260 µM (inactive)

Q: With COc1ccc(OCCn2ccnc2C)cc1 as the compound, how does the IC50 [8] read?
A: 136 µM (active)

Q: Which EC50 [1] does the source give for CCN(CC)S(=O)(=O)c1ccc2c(c1)nc(SCC(=O)NC1CC1)n2-c1ccccc1OC here?
A: > 260 µM (inactive)

Q: Which results are given for CCCCCCCCCCCCN1C(=O)CSC1c1cccnc1 (centres undefined)?
A: EC50 [3]: 6.74 µM (active); EC50 [4]: 20.4 µM (active); EC50 [5]: > 150 µM (not active)

Q: Which AC50 [2] does the source give for CC(C)c1ccc(/C(C(=O)O)=C(\O)C(=O)O)cc1 here?
A: 3.16 µM (inconclusive)

Q: For Cc1cccc(N2C(=N)SCC2=O)c1C, which EC50 [1] is on record?
A: > 260 µM (inactive)

Q: Which IC50 [8] does the source give for CN(C)CCCC1Sc2ccccc2Sc2ccccc21 (centres undefined) here?
A: 210 µM (active)

Q: With Cc1cc(C)n(-c2cc(=O)n(C)c(=O)n2C)n1 as the compound, how does the EC50 [1] read?
A: > 260 µM (inactive)

Q: For O=C(NNC(=O)c1ccccc1-n1cccc1)c1ccccc1, which AC50 [7] is on record?
A: 11.2 µM (inconclusive)

Q: And the AC50 [2]?
A: 35.5 µM (inconclusive)

Q: Which IC50 [8] does the source give for CC1CCN(S(=O)(=O)c2ccc3c(c2)C(Cl)(Cl)C(=O)N3)CC1 here?
A: 60.3 µM (active)

Q: For CCc1nnc(N/N=C/c2ccccc2Cl)n1N, which EC50 [1] is on record?
A: > 260 µM (inactive)

Q: For COc1cc(/C=N\NC(=O)CNC(=O)C2COc3ccccc3O2)ccc1O (centres undefined), which IC50 [8] is on record?
A: 29 µM (active)

Q: What does the source list for CCN1CCN(Cc2ccc(NC(=O)c3ccc(C)c(NC(=O)c4cncc(-c5cccs5)c4)c3)cc2C(F)(F)F)CC1?
A: AC50 [9]: 808 nM (active); AC50 [10]: 7.28 µM (active); AC50 [11]: 898 nM (active)

Q: Which AC50 [2] does the source give for O=C1C(CC[S+]([O-])c2ccccc2)C(=O)N(c2ccccc2)N1c1ccccc1 (centres undefined) [SULFINPYRAZONE] here?
A: 10 µM (inconclusive)
